Tested on: scopolamine-induced retention deficit in male Sprague Dawley rats
Test: Scopolamine-induced memory deficit in the spatial water maze task
Format: in vivo, rat
Conditions: IV 5 minutes prior to scopolamine 0.125 mg/kg IP; sub-efficacious doses; retention tested one day after training; Fisher LSD p<0.05 vs PEG/scopolamine
Experimental: Subjects: Animals used in these studies were naive male Sprague Dawley rats (SASCO St. Louis) weighing between 200-250 grams. Animals were housed in groups of three in a temperature (22° C.[…]) and humidity (40-70% relative humidity) controlled vivarium with a 12-hour light/dark cycle. Animals had ad lib access to food and water.
Drugs: Aricept and said compound of Formula I were each dissolved in 50% polyethylene glycol (PEG), and scopolamine HCI (Sigma) was dissolved in 0.9% saline. Aricept and said compound of Formula I (alone or in combination) or 50% PEG was administered intravenously (IV) 5 minutes prior to scopolamine (0.125 mg/kg) or saline given intraperitoneally (IP). Training commenced 15 minutes after the IP injection. […]
Procedure: An animal was initially placed on the platform in the tank for 20 seconds. […] For each trial during acquisition and retention, a computerized video tracking system recorded the latency (sec) to reach the submerged platform the total distance traveled (m) in the water maze, the number of zone (quadrant) transitions made, and the swim speed of the animal.
Data Analysis: A one-way ANOVA was conducted on the latency to locate the platform during retention testing. Tests for significant differences between individual treatment groups were assessed using a Fisher LSD test (p<0.05).

In the case of `COc1cc2c(cc1OC)C(=O)C(CC1CCN(Cc3ccccc3)CC1)C2` (stereo not shown) [Aricept, donepezil], the “attenuation of scopolamine-induced retention deficit (latency to locate the platform during retention testing)” value is reported as “did not significantly attenuate”.
